# Test results reported in PMC9228592, “Dichloroacetyl Amides of 3,5-Bis(benzylidene)-4-piperidones Displaying Greater Toxicity to Neoplasms than to Non-Malignant Cells” (Medicines, 2022).
# What was measured:
# Type in all cases: cell-based, human
# [1] = system: periodontal ligament fibroblast (HPLF); assay: Cytotoxicity (MTT, 48 h) against HPLF non-malignant cells; settings: mean ± S.D. of triplicate
# Excerpt: (§1) The target cells used in our study were human oral squamous cell carcinoma cell lines Ca9-22 (purchased from RIKEN Cell Bank, Tukuba, RCB-1976), HSC-2 (RCB1945), HSC-3 (RCB1975), HSC-4 (RCB1902), and three human normal oral cells, gingival fibroblast (HGF), periodontal ligament fibroblast (HPLF), and pulp cells (HPC) [established from the first premolar extracted tooth in the lower jaw (because of dysfunctional position or orthodontic treatment) and periodontal tissues of a child, according to the guideline of the Institutional Board of Meikai University Ethics Committee (No. A0808)], after obtaining informed consent from the patients. These cells were incubated for 48 h with the indicated concentrations of test samples or reference compounds sodium dichloroacetate (purchased from Sigma-Aldrich Chemical Company, Saint Louis, MO, USA), 5-fluorouracil (5-FU) from Kyowa (Tokyo, Japan), and doxorubicin (DXR) (St. Louis, MO, USA) and vehicle (DMSO) (0.008, 0.016, 0.031, 0.063, 0.125, 0.25, 0.5, and 1%) in Dulbecco’s Modified Eagle Medium (DMEM) media, which was supplemented with 10% heat-inactivated fetal bovine serum. Cell viability was determined by the MTT method. Cytotoxicity caused by the vehicle (DMSO) was subtracted.
# [2] = system: HSC-2 squamous cell carcinoma cells; assay: Cytotoxicity (MTT, 48 h) against HSC-2 cells; settings: for SI (HSC-2): average CC50 towards HGF, HPLF, HPC divided by CC50 against HSC-2
# Excerpt: as §1
# (§2) SI was calculated by dividing the average CC50 value (concentration of the compound to kill 50% of the cells) of the compound towards HGF, HPLF, and HPC cells by the CC50 value of the compound against a specific neoplastic cell line.
# [3] = system: HSC-3 squamous cell carcinoma cells; assay: Cytotoxicity (MTT, 48 h) against HSC-3 cells; settings: for CC50: 48 h, MTT, mean ± S.D. of triplicate; for SI (HSC-3): average CC50 towards HGF, HPLF, HPC divided by CC50 against HSC-3
# Excerpt: as §1, §2
# [4] = system: Ca9-22 squamous cell carcinoma cells; assay: Cytotoxicity (MTT, 48 h) against Ca9-22 cells; settings: for CC50: 48 h, MTT, mean ± S.D. of triplicate; for SI (Ca9-22): average CC50 towards HGF, HPLF, HPC divided by CC50 against Ca9-22
# Excerpt: as §1, §2
# pulp cells (HPC) = assay: Cytotoxicity (MTT, 48 h) against HPC non-malignant cells; settings: mean ± S.D. of triplicate
# Excerpt: as §1
# [5] = system: HSC-4 squamous cell carcinoma cells; assay: Cytotoxicity (MTT, 48 h) against HSC-4 cells; settings: for CC50: 48 h, MTT, mean ± S.D. of triplicate; for SI (HSC-4): average CC50 towards HGF, HPLF, HPC divided by CC50 against HSC-4
# Excerpt: as §1, §2
# HGF, HPLF, and HPC cells = assay: Average cytotoxicity over the three non-malignant cells
# Excerpt: as §1
# [6] = system: Ca9-22, HSC-2, HSC-3, and HSC-4 cells; assay: Average cytotoxicity, selectivity and PSE over the four carcinoma lines; settings: for Average SI: average of SI over Ca9-22, HSC-2, HSC-3, HSC-4
# Excerpt: as §1, §2
# PSE reflects both the potencies and differences in cytotoxicity to neoplasms and non-malignant cells. This value was the product of the reciprocal of the average CC50 value of the compounds towards Ca9-22, HSC-2, HSC-3, and HSC-4 cells and the average SI value × 100.
# [7] = system: gingival fibroblast (HGF); assay: Cytotoxicity (MTT, 48 h) against HGF non-malignant cells; settings: mean ± S.D. of triplicate
# Excerpt: as §1
# [8] = Cytotoxicity (MTT, 48 h) against HPLF non-malignant cells; settings: human, normal periodontal ligament fibroblasts (HPLF), mean ± S.D. of triplicate
# Excerpt: as §1
# [9] = Cytotoxicity (MTT, 48 h) against HPC non-malignant cells; settings: female, human, normal pulp cells (HPC), mean ± S.D. of triplicate
# Excerpt: as §1
# [10] = Average cytotoxicity over the three non-malignant cells; settings: female, human, normal oral cells HGF, HPLF and HPC (average over the three)
# Excerpt: as §1
# [11] = Cytotoxicity (MTT, 48 h) against HGF non-malignant cells; settings: human, normal gingival fibroblasts (HGF), mean ± S.D. of triplicate
# Excerpt: as §1
# Ca9-22 cells = assay: Cell cycle assay in Ca9-22 cells; settings: 20 h
# Experimental: The evaluation of varying quantities of 1d,e,k on the cell cycle in Ca9-22 cells was undertaken by a literature method. In brief, Ca9-22 cells were treated for 20 h without (control) or with the indicated concentrations of the test samples. To neglect the cytotoxicity effect of DMSO, all samples contained 0.1% DMSO. Cells (approximately 10^6 cells) were harvested, fixed for 1 h on ice with 1% paraformaldehyde, washed twice by phosphate-buffered saline, treated for 30 min at 37 °C with 0.2 mg/mL RNase A (ribonuclease A), stained for 15 min at room temperature with 0.01% propidium iodide in the presence of 0.01% NP-40 (nonyl phenoxypolyethoxyethanol) to prevent cell aggregation, filtered through Falcon® cell strainers (pore size: 40 µm) (Corning, NY, USA), subjected to cell sorting (SH800 Series; SONY Imaging Products and Solutions Inc., Kanagawa, Japan), and then analyzed with Cell Sorter Software version 2.1.2. (SONY Imaging Products and Solutions Inc., Kanagawa, Japan).
# [12] = 48 h, MTT, mean ± S.D. of triplicate
# [13] = average over Ca9-22, HSC-2, HSC-3, HSC-4
# [14] = Homo sapiens, HSC-2, 48 h, MTT, mean ± S.D. of triplicate
# [15] = Homo sapiens, average over Ca9-22, HSC-2, HSC-3, HSC-4
Compound,CC50 [1] [µM],"CC50 [2, 12] [µM]",SI (HSC-2) [2],CC50 [3] [µM],SI (HSC-3) [3],CC50 [4] [µM],SI (Ca9-22) [4],CC50 (pulp cells (HPC)) [µM],CC50 [5] [µM],SI (HSC-4) [5],"CC50 (HGF, HPLF, and HPC cells) [µM]",Average SI [6],"CC50 [6, 13] [µM]",CC50 [7] [µM],also measured
O=C1C(=Cc2ccccc2)CN(C(=O)C(Cl)Cl)CC1=Cc1ccccc1 [Compound 1a],3.37 ± 0.42,0.67 ± 0.06,6.05,1.29 ± 0.07,3.14,0.42 ± 0.04,9.64,2.88 ± 0.08,0.59 ± 0.12,6.86,4.05,6.42,0.74,5.9 ± 0.1,–
O=C1/C(=C/c2ccc3c(c2)OCO3)CN(C(=O)C(Cl)Cl)C/C1=C\c1ccc2c(c1)OCO2 [Compound 1i],4.37 ± 0.85,0.36 ± 0.01,11.9,0.74 ± 0.13,5.77,0.17 ± 0.06,25.1,2.78 ± 0.14,0.65 ± 0.17,6.57,4.27,12.3,0.48,5.67 ± 0.31,–
O=C1C(=Cc2ccc(F)c(F)c2)CN(C(=O)C(Cl)Cl)CC1=Cc1ccc(F)c(F)c1 [Compound 1c],1.91 ± 0.08,0.2 ± 0.02,9.00,0.35 ± 0.02,5.14,0.09 ± 0.02,20.0,1.28 ± 0.37,0.2 ± 0.01,9.00,1.8,10.8,0.21,2.21 ± 0.11,–
COc1ccc(/C=C2\CN(C(=O)C(Cl)Cl)C/C(=C\c3ccc(OC)c(OC)c3)C2=O)cc1OC [Compound 1g],–,–,23.8,–,14.5,–,36.8,–,–,20.3,–,23.9,–,–,"CC50 at 48 h [8]: 2.83 ± 1.53 µM; CC50 [2, 14]: 0.17 ± 0.02 µM; CC50 ([3]; Homo sapiens, HSC-3): 0.28 ± 0.03 µM; CC50 ([4]; Homo sapiens, Ca9-22): 0.11 ± 0.02 µM; CC50 at 48 h [9]: 1.19 ± 0.09 µM; CC50 ([5]; Homo sapiens, HSC-4): 0.2 ± 0.04 µM; CC50 at 48 h [10]: 4.05 µM; CC50 [6, 15]: 0.19 µM; CC50 at 48 h [11]: 8.13 ± 2.47 µM"
"O=C([O-])C(Cl)Cl.[Na+] [SDA, sodium dichloroacetate, reference compound]",> 200,> 200,–,> 200,–,> 200,–,> 200,> 200,–,> 200,–,> 200,> 200,"Average CC50 [6, 13]: little or no efficacy"
COc1ccc(/C=C2\CN(C(=O)C(Cl)Cl)C/C(=C\c3ccc(OC)cc3)C2=O)cc1 [Compound 1f],5.33 ± 0.32,0.52 ± 0.07,11.5,1 ± 0.16,5.99,0.39 ± 0.02,15.4,3.62 ± 0.07,1.26 ± 0.27,4.75,5.99,9.41,0.79,9.03 ± 0.76,–
"COc1cccc2c1C(=O)c1c(O)c3c(c(O)c1C2=O)C[C@@](O)(C(=O)CO)C[C@@H]3O[C@H]1C[C@H](N)[C@H](O)[C@H](C)O1 [DXR, doxorubicin, reference compound]",–,–,>47.8,–,>36.7,–,>22.2,–,–,>79.6,–,>46.6,–,–,"CC50 at 48 h [8]: > 10 µM; CC50 [2, 14]: 0.2 ± 0.02 µM; CC50 ([3]; Homo sapiens, HSC-3): 0.26 ± 0.21 µM; CC50 ([4]; Homo sapiens, Ca9-22): 0.43 ± 0.04 µM; CC50 at 48 h [9]: > 8.65 µM; CC50 ([5]; Homo sapiens, HSC-4): 0.12 µM; CC50 at 48 h [10]: > 9.55 µM; CC50 [6, 15]: 0.25 µM; CC50 at 48 h [11]: > 10 µM"
"O=c1[nH]cc(F)c(=O)[nH]1 [Compound 5-FU, 5-fluorouracil, reference compound]",–,–,>32.7,–,>16.3,–,>40.7,–,–,–,–,>55.2,–,–,"CC50 at 48 h [8]: > 1000 µM; CC50 [2, 14]: 30.5 ± 7.1 µM; CC50 ([3]; Homo sapiens, HSC-3): 61.3 ± 9.8 µM; CC50 ([4]; Homo sapiens, Ca9-22): 24.5 ± 12.3 µM; CC50 at 48 h [9]: > 987 µM; CC50 ([5]; Homo sapiens, HSC-4): 7.58 ± 0.5 µM; CC50 at 48 h [10]: > 996 µM; CC50 [6, 15]: 31 µM; CC50 at 48 h [11]: > 1000 µM"
CN(C)c1ccc(C=C2CN(C(=O)C(Cl)Cl)CC(=Cc3ccc(N(C)C)cc3)C2=O)cc1 [Compound 1l],188 ± 21,14.9 ± 4.4,9.40,45.5 ± 7.6,3.08,13.6 ± 2.7,10.3,122 ± 69,19.6 ± 6.3,7.14,140,7.48,23.4,111 ± 27,"CC50 Average (non-malignant cells) (HGF, HPLF, and HPC cells): very low toxicity"
Cc1ccc(C=C2CN(C(=O)C(Cl)Cl)CC(=Cc3ccc(C)cc3)C2=O)cc1 [Compound 1j],5 ± 0.1,0.26 ± 0.01,18.5,0.46 ± 0.04,10.5,0.15 ± 0.03,32.1,3.93 ± 0.65,0.45 ± 0.04,10.7,4.82,18.0,0.33,5.53 ± 0.31,–
COc1cc(/C=C2\CN(C(=O)C(Cl)Cl)C/C(=C\c3cc(OC)c(OC)c(OC)c3)C2=O)cc(OC)c1OC [Compound 1h],17 ± 5.1,0.14 ± 0.01,–,1.37 ± 0.22,6.26,0.72 ± 0.15,11.9,4 ± 0.6,0.99 ± 0.39,8.67,8.58,22.0,0.8,4.7 ± 1.6,–
O=C1C(=Cc2ccc(F)cc2)CN(C(=O)C(Cl)Cl)CC1=Cc1ccc(F)cc1 [Compound 1b],2.26 ± 0.11,0.25 ± 0.02,8.72,0.44 ± 0.02,4.96,0.11 ± 0.01,19.8,1.3 ± 0.16,0.33 ± 0.07,6.61,2.18,10.0,0.28,2.97 ± 0.46,–
O=C1C(=Cc2ccc(Cl)c(Cl)c2)CN(C(=O)C(Cl)Cl)CC1=Cc1ccc(Cl)c(Cl)c1 [Compound 1e],0.82 ± 0.1,0.08 ± 0.01,9.75,0.13 ± 0.06,6.00,0.04,19.5,0.49,0.23 ± 0.01,3.39,0.78,9.66,0.12,1.04 ± 0.13,"subG1 population (Ca9-22 cells; 0.8 µM): slight increase; G2M cell population (Ca9-22 cells; 0.8 µM, p < 0.05): most prominent increase; effect on the cell cycle (Ca9-22 cells; 0.1, 0.2, and 0.4 µM): little effects; HSC-2 CC50 [2, 12]: double-digit nanomolar"
